20 compounds from patent publication EP4567035A1, “NOVEL COMPOUND AS HYPOXIA-INDUCIBLE FACTOR 1(HIF-1) INHIBITOR OR VASCULAR ENDOTHELIAL GROWTH FACTOR (VEGF) INHIBITOR, AND PHARMACEUTICAL COMPOSITION COMPRISING SAME” (Nextgen Bioscience Co., Ltd., priority 2022, dated 2024) can be followed below.

For one assay, the target named is T1, HIF-1α (Homo sapiens, UniProt Q16665).
T1 construct: endogenous in cells; host or cells: ARPE-19 (ATCC CRL-2302)
The experiment in a line: Analysis of HIF-1α protein expression (Western blot) in ARPE-19 cells under mixed hypoxic condition. The class given is cell-based. The conditions noted are these: values marked * in the table, mixed hypoxic condition (1% oxygen + CoCl2) for 24 hours, concentration range at which HIF-1α expression is reduced by 50% vs untreated control, read-out: IC50 HIF-1α, Hypoxia(24h). The method, boiled down: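 ARPE-19 cells were pretreated 16 h or 2 h with compound (0.1 nM–10 µM, serum-free DMEM/F12), then held 1 h or 24 h in mixed hypoxia (1% O2 plus CoCl2). HIF-1α was quantified by Western blot against β-actin; the concentration range giving ≥50% reduction vs untreated control was reported.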
(In general: In western blotting, separated proteins are transferred to a membrane and probed.)

For another assay, the system named is VEGF. The experiment in a line: Evaluation of VEGF protein secretion level (Human VEGF ELISA) in ARPE-19 cell medium under hypoxic conditions. To be noted: ARPE-19 cells; pretreated 2 hours, 24 hours hypoxic conditions; secreted VEGF in medium supernatant by ELISA; concentration range reducing VEGF by 50% vs untreated control; read-out: IC50 VEGF. The class given is cell-based. The method, boiled down: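 Human ARPE-19 cells were pretreated 2 h with compound (0.1 nM–10 µM, in DMEM/F12 with 1% FBS), then held 24 h in hypoxia (1% O2, 5% CO2). Secreted VEGF in the supernatant was quantified by ELISA (A450). The value is the concentration range giving ≥50% VEGF reduction versus untreated control.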
Background: An ELISA detects its analyte on a solid surface through an enzyme-linked reagent.

T1 sequence (Q16665 whole entry): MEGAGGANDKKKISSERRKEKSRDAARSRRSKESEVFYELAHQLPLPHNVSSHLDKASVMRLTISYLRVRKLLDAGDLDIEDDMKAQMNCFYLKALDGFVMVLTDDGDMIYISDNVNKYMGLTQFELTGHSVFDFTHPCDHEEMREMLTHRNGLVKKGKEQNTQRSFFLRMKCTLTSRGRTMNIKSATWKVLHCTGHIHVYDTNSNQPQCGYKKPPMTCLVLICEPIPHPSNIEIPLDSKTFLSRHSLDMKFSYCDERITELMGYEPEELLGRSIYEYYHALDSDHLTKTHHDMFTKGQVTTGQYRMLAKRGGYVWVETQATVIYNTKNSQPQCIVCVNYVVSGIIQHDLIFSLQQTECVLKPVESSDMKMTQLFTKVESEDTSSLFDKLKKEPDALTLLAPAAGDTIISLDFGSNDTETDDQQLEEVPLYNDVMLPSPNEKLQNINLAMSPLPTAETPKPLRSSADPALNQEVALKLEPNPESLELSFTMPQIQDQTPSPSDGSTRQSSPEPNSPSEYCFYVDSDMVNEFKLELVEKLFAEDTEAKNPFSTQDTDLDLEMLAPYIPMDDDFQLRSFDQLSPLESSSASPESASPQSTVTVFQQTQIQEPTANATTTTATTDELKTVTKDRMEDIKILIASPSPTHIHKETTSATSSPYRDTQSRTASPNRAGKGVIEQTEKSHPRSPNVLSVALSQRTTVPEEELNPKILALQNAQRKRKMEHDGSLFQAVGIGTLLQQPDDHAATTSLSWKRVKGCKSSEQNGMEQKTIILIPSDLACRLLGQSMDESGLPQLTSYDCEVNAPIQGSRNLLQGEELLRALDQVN

For `O=C(NCc1cc(F)cc(Nc2nnco2)c1)c1ncnc2nc(C3CCCC3)[nH]c12` [Example 134, N-(3-((1,3,4-oxadiazol-2-yl)amino)-5-fluorobenzyl)-8-cyclopentyl-7H-purine-6-carboxamide], the DC50 at HIF-1α lay in the range of 100 to 1000 nM. Also, in the assay on VEGF, the IC50 is more than 10000 nM.

For `O=C(NCc1cc(F)cc(NC2CCCC2)c1)c1ncnc2nc(C3CCCC3)[nH]c12` [Example 135, 8-Cyclopentyl-N-(3-(cyclopentylamino)-5-fluorobenzyl)-7H-purine-6-carboxamide], the DC50 on HIF-1α fell in the range of 100 to 1000 nM. Besides, the IC50 in the assay on VEGF was more than 10000 nM.

In the case of `O=C(NCc1cc(F)cc(Nc2nncs2)c1)c1ncnc2nc(C3CCCC3)[nH]c12` [Example 136, N-(3-((1,3,4-thiadiazol-2-yl)amino)-5-fluorobenzyl)-8-cyclopentyl-7H-purine-6-carboxamide], the DC50 at HIF-1α was in the range of 100 to 1000 nM. Further, in the assay with VEGF, the concentration for half-maximal inhibition (IC50) is more than 10000 nM.

As for `O=C(NCc1cc(F)cc(N2CCCN(c3ccc(F)cc3)CC2)c1)c1ncnc2nc(C3CCCC3)[nH]c12` [Example 137, 8-Cyclopentyl-N-(3-fluoro-5-(4-(4-fluorophenyl)-1,4-diazepan-1-yl)benzyl)-7H-purine-6-carboxamide], on HIF-1α, the DC50 fell in the range of 100 to 1000 nM. Also, in the assay with VEGF, the 50% inhibitory concentration (IC50) is more than 10000 nM.

Take `O=C(NCc1cc(F)cc(-c2cnn(C3CCCC3)c2)c1)c1ncnc2nc(C3CCCC3)[nH]c12` [Example 138, 8-Cyclopentyl-N-(3-(1-cyclopentyl-1H-pyrazol-4-yl)-5-fluorobenzyl)-7H-purine-6-carboxamide]: at HIF-1α, the DC50 was less than 100 nM. Also, in the assay on VEGF, the half-maximal inhibitory concentration (IC50) lay within 100 to 1000 nM.

Regarding `O=C(NCc1cc(F)cc(-c2cnn(C3CCCCC3)c2)c1)c1ncnc2nc(C3CCCC3)[nH]c12` [Example 139, N-(3-(1-cyclohexyl-1H-pyrazol-4-yl)-5-fluorobenzyl)-8-cyclopentyl-7H-purine-6-carboxamide], the DC50 on HIF-1α was less than 100 nM. Besides, the IC50 in the assay on VEGF is less than 100 nM.

Regarding `O=C(NCc1cc(F)cc(-c2cnn(C3CCOC3)c2)c1)c1ncnc2nc(C3CCCC3)[nH]c12` (stereo not shown) [Example 140, 8-Cyclopentyl-N-(3-fluoro-5-(1-(tetrahydrofuran-3-yl)-1H-pyrazol-4-yl)benzyl)-7H-purine-6-carboxamide], the DC50 on HIF-1α is less than 100 nM. The IC50 with VEGF is more than 10000 nM.

On to `O=C(NCc1cc(F)cc(-c2cnn(-c3cscn3)c2)c1)c1ncnc2nc(C3CCCC3)[nH]c12` [Example 141, 8-Cyclopentyl-N-(3-fluoro-5-(1-(thiazol-4-yl)-1H-pyrazol-4-yl)benzyl)-7H-purine-6-carboxamide], for which, at HIF-1α, the DC50 was less than 100 nM. Further, in the assay on VEGF, the IC50 was less than 100 nM.

Turning to `Cn1ccc(Nc2cc(F)cc(CNC(=O)c3ncnc4nc(C5CCCC5)[nH]c34)c2)c1` [Example 142, 8-Cyclopentyl-N-(3-fluoro-5-((1-methyl-1H-pyrrol-3-yl)amino)benzyl)-7H-purine-6-carboxamide], the DC50 at HIF-1α fell in the range of 100 to 1000 nM. The concentration for half-maximal inhibition (IC50) in the assay with VEGF was more than 10000 nM.

On to `O=C(NCc1cc(F)cc(-c2cnn(-c3cc[s+]([O-])c3)c2)c1)c1ncnc2nc(C3CCCC3)[nH]c12` (stereo not shown) [Example 143, 8-Cyclopentyl-N-(3-fluoro-5-(1-(1-oxidothiophen-3-yl)-1H-pyrazol-4-yl)benzyl)-7H-purine-6-carboxamide], for which the DC50 on HIF-1α was 1000 to 10000 nM. In addition, in the assay with VEGF, the IC50 was more than 10000 nM.

For `Cn1cc(Nc2cc(F)cc(CNC(=O)c3ncnc4nc(C5CCC(F)(F)C5)[nH]c34)c2)cn1` (stereo not shown) [Example 144, 8-(3,3-Difluorocyclopentyl)-N-(3-fluoro-5-((1-methyl-1H-pyrazol-4-yl)amino)benzyl)-7H-purine-6-carboxamide], the DC50 on HIF-1α was less than 100 nM. Further, the IC50 in the assay on VEGF lay in the range of 100 to 1000 nM.

For the compound `[2H]c1c([2H])c([2H])c(-n2cc(-c3cc(F)cc(CNC(=O)c4ncnc5nc(C6CCCC6)[nH]c45)c3)cn2)c([2H])c1[2H]` [Example 145, 8-Cyclopentyl-N-(3-fluoro-5-(1-phenyl-d5-1H-pyrazol-4-yl)benzyl)-7H-purine-6-carboxamide], the DC50 at HIF-1α is less than 100 nM. Also, the concentration for half-maximal inhibition (IC50) with VEGF is 100 to 1000 nM.

For `Cc1nn(-c2ccc(F)cc2)cc1-c1cc(F)cc(CNC(=O)c2ncnc3nc(C4CCCC4)[nH]c23)c1` [Example 146, 8-Cyclopentyl-N-(3-fluoro-5-(1-(4-fluorophenyl)-3-methyl-1H-pyrazol-4-yl)benzyl)-7H-purine-6-carboxamide], on HIF-1α, the DC50 is 100 to 1000 nM. Moreover, the 50% inhibitory concentration (IC50) in the assay with VEGF lay in the range of 100 to 1000 nM.

In the case of `Cc1c(-c2cc(F)cc(CNC(=O)c3ncnc4nc(C5CCCC5)[nH]c34)c2)cnn1-c1ccc(F)cc1` [Example 147, 8-Cyclopentyl-N-(3-fluoro-5-(1-(4-fluorophenyl)-5-methyl-1H-pyrazol-4-yl)benzyl)-7H-purine-6-carboxamide], the DC50 at HIF-1α was 100 to 1000 nM. Further, in the assay on VEGF, the half-maximal inhibitory concentration (IC50) lay in the range of 100 to 1000 nM.

Take `[2H]c1c([2H])c([2H])c(-n2cc(-c3cc(F)cc(CNC(=O)c4ncnc5nc(C6CCC(F)(F)C6)[nH]c45)c3)cn2)c([2H])c1[2H]` (stereo not shown) [Example 148, 8-(3,3-Difluorocyclopentyl)-N-(3-fluoro-5-(1-(phenyl-d5)-1H-pyrazol-4-yl)benzyl)-7H-purine-6-carboxamide]: the DC50 at HIF-1α was less than 100 nM. In addition, the IC50 in the assay on VEGF is 100 to 1000 nM.

On to `O=C(NCc1cc(F)cc(-n2cc(-c3ccc(F)cc3)cn2)c1)c1ncnc2nc(C3CCCC3)[nH]c12` [Example 149, 8-Cyclopentyl-N-(3-fluoro-5-(4-(4-fluorophenyl)-1H-pyrazol-1-yl)benzyl)-7H-purine-6-carboxamide], for which the DC50 at HIF-1α lay within 100 to 1000 nM. Moreover, the half-inhibitory concentration (IC50) in the assay on VEGF was more than 10000 nM.

In the case of `COC(=O)C(Cc1ccc(-n2cc(-c3cc(F)cc(CNC(=O)c4ncnc5nc(C6CCCC6)[nH]c45)c3)cn2)cc1)NC(=O)c1ncnc2nc(C3CCCC3)[nH]c12` (stereo not shown) [Example 150, Methyl 2-(8-cyclopentyl-7H-purine-6-carboxamido)-3-(4-(4-(3-((8-cyclopentyl-7H-purine-6-carboxamido)methyl)-5-fluorophenyl)-1H-pyrazol-1-yl)phenyl)propanoate], the DC50 at HIF-1α fell in the range of 100 to 1000 nM. In addition, the half-inhibitory concentration (IC50) in the assay on VEGF is more than 10000 nM.

`[2H]C([2H])([2H])n1cc(Nc2cc(F)cc(CNC(=O)c3ncnc4nc(C5CCCC5)[nH]c34)c2)cn1` [Example 151, 8-Cyclopentyl-N-(3-fluoro-5-((1-(methyl-d3)-1H-pyrazol-4-yl)amino)benzyl)-7H-purine-6-carboxamide]: the DC50 at HIF-1α is less than 100 nM. Moreover, in the assay on VEGF, the IC50 fell in the range of 100 to 1000 nM.

Turning to `[2H]C([2H])([2H])n1cc(Nc2cc(F)cc(CNC(=O)c3ncnc4nc(C5CCC(F)(F)C5)[nH]c34)c2)cn1` (stereo not shown) [Example 152, 8-(3,3-Difluorocyclopentyl)-N-(3-fluoro-5-((1-(methyl-d3)-1H-pyrazol-4-yl)amino)benzyl)-7H-purine-6-carboxamide], at HIF-1α, the DC50 was less than 100 nM. In the assay on VEGF, the IC50 lay in the range of 100 to 1000 nM.

As to `[2H]C1([2H])C(c2nc3ncnc(C(=O)NCc4cc(F)cc(-c5cnn(-c6ccc(F)cc6)c5)c4)c3[nH]2)C([2H])([2H])C([2H])([2H])C1([2H])[2H]` [Example 153, 8-(Cyclopentyl-2,2,3,3,4,4,5,5-d8)-N-(3-fluoro-5-(1-(4-fluorophenyl)-1H-pyrazol-4-yl)benzyl)-7H-purine-6-carboxamide], the DC50 on HIF-1α is less than 100 nM. In addition, the IC50 in the assay on VEGF fell in the range of 100 to 1000 nM.

For orientation: IC50 means the concentration that inhibits the measured activity by half.
